Converted amounts (≈) assume the structure as drawn. “And” between values parts separate entries of the source, which are not always exact repeats. Equal entries are not always repeated. Where two headings read alike, the source gives them in different places. No end group written: not given here.
What was measured:
[1] = tested on: Staphylococcus aureus isolates (n = 104); assay: Broth microdilution MIC, clinical isolate panel; assay type: cell-based; details: Staphylococcus aureus (n = 104), all methicillin-resistant
Experimental: (§1) Comparator antibiotics were supplied by Micromyx, and stock solutions were prepared on the first day of testing using solvents recommended by CLSI (1). Stock solutions of all compounds were made at 40× the final testing concentration and stored at −80° C. prior to testing. Information regarding compound source, catalog and lot number, testing concentrations and drug diluent for the comparators and test agent are detailed below in Table 3.
(§2) The test organisms evaluated in this study consisted of clinical isolates from the Micromyx Repository and reference isolates from the American Type Culture Collection (ATCC; Manassas, Va.). The clinical isolates were obtained from USA hospitals. Upon initial receipt at Micromyx, the organisms were sub-cultured onto an appropriate agar medium. Following incubation, colonies were harvested from these plates and cell suspensions prepared and frozen at −80° C. with a cryoprotectant. Prior to testing, the isolates were streaked from frozen vials onto Trypticase Soy Agar with 5% sheep blood (Becton Dickenson [BD]; Sparks, Md.; Lot Nos. 7173618, 7166759, 7208688, 72144895, 7228505 and Remel Lenexa, Kans. Lot No. 212574). Plates were incubated at 35° C. overnight.
(§3) Mueller Hinton II broth (MHB II; BD; Lot Nos. 6258541 and 7143896) was used for MIC testing of aerobic organisms.
(§4) MIC values were determined using a broth microdilution procedure described by CLSI (1, 3). Automated liquid handlers (Multidrop 384, Labsystems, Helsinki, Finland; Biomek 2000 and Biomek FX, Beckman Coulter, Fullerton Calif.) were used to conduct serial dilutions and liquid transfers.
(§5) To prepare the drug mother plates, which would provide the serial drug dilutions for the replicate daughter plates, the wells of columns 2-12 of standard 96-well microdilution plates (Costar 3795) were filled with 150 μl of the designated diluent for each row of drug. The test articles and comparator compounds (300 μl at 40× the highest concentration to be tested) were dispensed into the appropriate wells in column 1. The Biomek 2000 was then used to make 2-fold serial dilutions in the mother plates from column 1 through column 11. The wells of Column 12 contained no drug and served as the organism growth control wells for the assay.
(§6) The daughter plates were loaded with 185 μL per well of MHB II using the Multidrop 384. The daughter plates were completed on the Biomek FX instrument which transferred 5 µL of drug solution from each well of a mother plate to the corresponding well of each daughter plate in a single step. A standardized inoculum of each test organism was prepared per CLSI methods (1). The inoculum for each organism was dispensed into sterile reservoirs divided by length (Beckman Coulter), and the Biomek 2000 was used to inoculate the plates. Daughter plates were placed on the Biomek 2000 work surface in reverse orientation so that inoculation took place from low to high drug concentration.
(§7) Plates were stacked 3-4 high, covered with a lid on the top plate, placed in plastic bags, and incubated at 35° C. for 16 to 20 hrs. Following incubation, the microplates were removed from the incubator and viewed from the bottom using a plate viewer. […] The MIC was read and recorded as the lowest concentration of drug that inhibited visible growth of the organism.
(§8) Clinical breakpoints to determine percent resistance within a given organism group were obtained from CLSI (3), with the exception of colistin for K. pneumoniae, Enterobacter spp., and E. coli, which are only available from EUCAST.

[2] = tested on: Enterococcus faecium isolates (n = 104); assay: Broth microdilution MIC, clinical isolate panel; assay type: cell-based
Experimental: as §1, §2, §3, §4, §5, §6, §7, §8

[3] = mouse, in vivo, iv; for Vd: male CD-1 mice
Description: Male CD-1 mice will be received from an approved vendor and allowed to acclimate for a minimum of two days. Fasting will be not required.
All dosing syringes will be weighed prior to and following dosing. IV doses will be administered as a slow bolus (over ˜30 seconds) via direct venipuncture of a tail vein. All animals will be observed at dosing and each scheduled collection. All abnormalities will be recorded.
Terminal blood samples will be collected via cardiac puncture following inhalation anesthesia.
Sample Processing and Storage: Blood samples will be collected into K2EDTA tubes and stored on wet ice. Whole blood will be processed to plasma by centrifugation (3500 rpm at 5° C.) within 30 minutes of collection. Plasma samples will be split into 2 equal aliquots and each transferred into 96 well plates (matrix tubes) and stored at −80° C. until analysis. Administered doses will be determined gravimetrically.
Pharmacokinetic parameters will be calculated using non-compartmental methods as implemented in the Phoenix® WinNonlin® ver. 6.3 comprehensive TK/PK analysis software program (Pharsight Corporation; Mountain View, Calif.) using an IV infusion model. Pharmacokinetic analysis will be conducted using a 30-minute intravenous infusion time. Therefore, 30 minutes will be added to each sample time point postdose to obtain nominal time for TK analysis. Nominal times and dosage levels will be used for all calculations. Values below the lower limit of quantitation (BLQ) will be assigned a value of zero for the pharmacokinetic calculations. Microsoft® Excel® 2013 will be used for receipt of bioanalytical data, minor formatting, including setting BLQ values to “0”, transfer into WinNonlin® for PK analysis, and calculation of the mean when an approximated value will be excluded. All plasma concentration data from all animals will be included in the analysis. Graphical presentations will be performed using Microsoft® Excel® 2013.

[4] = for AUC(0-inf): AUCinf; for clearance: CL; for half-life: T 1/2, macaque; for Vd: Vss
Experimental: Animals will be obtained from the Test Facility's colony of adult male cynomolgous monkeys (Macaca fascicularis) of Chinese origin. Animals will be weighed prior to dosing.
Animals will be fasted a minimum of 2 hours prior to procedures requiring the administration of ketamine anesthesia. The diet will also be supplemented with other nutrients by feeding items such as raisins or fresh fruits that are presented to the animal as part of an environmental enrichment program. Offering items known to cause diarrhea will be avoided.
Intravenous administration will be via 30 minute infusion into a temporary percutaneous catheter placed into a saphenous vein. Prior to and following dose administration, the catheter will be flushed with 0.5 mL saline prior to removal. All dosing syringes will be weighed prior to and following dosing.
All animals will be observed at dosing and each scheduled collection. All abnormalities will be recorded.
Serial blood samples will be collected via femoral vein (cephalic or saphenous, as necessary). Approximately 1 mL blood samples will be collected into K2EDTA tubes.
Blood samples will be collected into K2EDTA tubes and stored on wet ice. Whole blood will be processed to plasma by centrifugation (2400-2700 rpm at 5° C.) within 30 minutes of collection. Plasma samples will be split into 2 equal aliquots and stored at −80° C. until analysis.
Administered doses will be determined gravimetrically.
Prior to extraction, a known concentration of a mass-adjusted internal standard (IS) will be added to assess recovery and allow for quantitation. Purified samples will be further subjected to high-performance liquid chromatography (HPLC) using C18 300 or 130 angstrom columns prior to MS/MS analysis. Multiple charge states will be observed by MS, so MS/MS will be employed to enable multiple reaction monitoring (MRM) analyses to determine the most MRM transitions with the highest signal-to-noise gain. Compound plasma concentrations will be determined by comparing to and compensating with co-purified IS peak intensity and validated calibrated standard curves.
Toxicokinetic parameters will be calculated using non-compartmental methods as implemented in the Phoenix® WinNonlin® ver. 6.3 comprehensive TK/PK analysis software program (Pharsight Corporation; Mountain View, Calif.) using an IV infusion model. Toxicokinetic analysis will be conducted using a 30-minute intravenous infusion time. Therefore, 30 minutes will be added to each sample time point postdose to obtain nominal time for TK analysis. Nominal times and dosage levels will be used for all calculations. Values below the lower limit of quantitation (BLQ) will be assigned a value of zero for the toxicokinetic calculations. Microsoft® Excel® 2013 will be used for receipt of bioanalytical data, minor formatting, including setting BLQ values to “0”, transfer into WinNonlin® for TK analysis, and calculation of the mean when an approximated value will be excluded. All plasma concentration data from all animals will be included in the analysis. Graphical presentations will be performed using Prism® for Macintosh ver. 7.0a (GraphPad, Inc.; La Jolla, Calif.).

[5] = cynomolgus monkey, in vivo, iv, 1 mg/kg, macaque, 1 mg/kg IV infusion, Mean
[6] = cynomolgus monkey, in vivo, iv, 3 mg/kg, macaque, 3 mg/kg IV infusion, Mean
[7] = cynomolgus monkey, in vivo, iv, 10 mg/kg, macaque, 10 mg/kg IV infusion, Mean

For `C[C@H]1c2cccc(O)c2C(=O)C2=C(O)[C@]3(O)C(=O)C(C(N)=O)=C(O)[C@@H](N(C)C)[C@@H]3[C@@H](O)[C@@H]21` [Doxycycline], the “% R (percent of isolates resistant, clinical breakpoints)” value [1] was 0%, the MIC50 [1] was 0.12 µg/mL (≈ 0.27 µM) and the MIC90 [1] was 1 µg/mL (≈ 2.25 µM).

In the case of `CC(=O)NC[C@H]1CN(c2ccc(N3CCOCC3)c(F)c2)C(=O)O1` [Linezolid], the “% R (percent of isolates resistant, clinical breakpoints)” value [1] is reported as 1.9%, the MIC90 [1] is reported as 2 µg/mL (≈ 5.93 µM) and the MIC ([1]; read-out: Mode (MIC)) is reported as 2 µg/mL (≈ 5.93 µM). For the same compound, the “% R (percent of isolates resistant, clinical breakpoints)” value ([2]; Enterococcus faecium (n = 104)) was 3.8% and the MIC ([2]; Enterococcus faecium, read-out: Mode (MIC)) was 2 µg/mL (≈ 5.93 µM).

With “RRWVRRVRRVWRRVVRVVRRWVRR-NH2 [SEQ ID NO: 1]” the AUC(0-inf) ([3]; 3 mg/kg) was < 3500 ng·h/mL, the C0 ([3]; 3 mg/kg) was 26000 ng/mL and the Cmax ([3]; 3 mg/kg) was 16600 ng/mL. For the same compound, the MRT last ([3]; 3 mg/kg) was ~0.5 h, the Tmax ([3]; 3 mg/kg) was 0.303 h and the clearance ([3]; 3 mg/kg) was ~5 mL/min/kg. The half-life ([3]; 3 mg/kg) was ~8 h, the Vd ([3]; 3 mg/kg, Vss, 3 mg/kg IV) was ~0.2 L/kg and the Vd ([3]; 3 mg/kg, Vz, 3 mg/kg IV) was ~3 L/kg. It also gave an AUC(0-inf) ([3]; 15 mg/kg) of 53800 ng·h/mL, an AUC(0-t) ([3]; 15 mg/kg) of 53600 ng·h/mL and a C0 ([3]; 15 mg/kg) of 192000 ng/mL. It also gave a Cmax ([3]; 15 mg/kg) of 163000 ng/mL, an MRT last ([3]; 15 mg/kg) of 0.579 h and a clearance ([3]; 15 mg/kg) of 4.65 mL/min/kg. The half-life ([3]; 15 mg/kg) was 7.45 h, the Vd ([3]; 15 mg/kg, Vss, 15 mg/kg IV) was 0.208 L/kg and the Vd ([3]; 15 mg/kg, Vz, 15 mg/kg IV) was 3 L/kg. It also gave an AUC(0-t) ([4]; cynomolgus monkey, in vivo, iv, 1 mg/kg, AUC0-24hr, macaque, 1 mg/kg IV infusion, Mean) of 1090 ng·h/mL, an AUC(0-inf) [4, 5] of 1170 ng·h/mL and an AUC(0-t) ([4]; cynomolgus monkey, in vivo, iv, 1 mg/kg, AUClast, macaque, 1 mg/kg IV infusion, Mean) of 983 ng·h/mL. For the same compound, the clearance [4, 5] was 18.5 mL/min/kg, the Cmax [4, 5] was 1710 ng/mL and the half-life ([4]; cynomolgus monkey, in vivo, iv, 1 mg/kg, 1 mg/kg IV infusion, Mean) was 2 h. For the same compound, the Vd [4, 5] was 1.38 L/kg, the Vd ([4]; cynomolgus monkey, in vivo, iv, 1 mg/kg, macaque, 1 mg/kg IV infusion, individual monkey) was 1.53 L/kg and the AUC(0-t) ([4]; cynomolgus monkey, in vivo, iv, 3 mg/kg, AUC0-24hr, macaque, 3 mg/kg IV infusion, Mean) was 7580 ng·h/mL. The AUC(0-inf) [4, 6] was 7710 ng·h/mL, the AUC(0-t) ([4]; cynomolgus monkey, in vivo, iv, 3 mg/kg, AUClast, macaque, 3 mg/kg IV infusion, Mean) was 7580 ng·h/mL and the clearance [4, 6] was 7.18 mL/min/kg. It also gave a Cmax [4, 6] of 10300 ng/mL, a half-life ([4]; cynomolgus monkey, in vivo, iv, 3 mg/kg, 3 mg/kg IV infusion, Mean) of 5.2 h and a half-life ([4]; cynomolgus monkey, in vivo, iv, 3 mg/kg, 3 mg/kg IV infusion, individual monkey) of 4.4 h. It also gave a Tmax ([4]; cynomolgus monkey, in vivo, iv, 3 mg/kg, Tmax, macaque, 3 mg/kg IV infusion, Mean) of 6.6 min, a Vd [4, 6] of 1.29 L/kg and a Vd ([4]; cynomolgus monkey, in vivo, iv, 3 mg/kg, macaque, 3 mg/kg IV infusion, individual monkey) of 1.58 L/kg. It also gave an AUC(0-t) ([4]; cynomolgus monkey, in vivo, iv, 10 mg/kg, AUC0-24hr, macaque, 10 mg/kg IV infusion, Mean) of 50300 ng·h/mL, an AUC(0-inf) [4, 7] of 50800 ng·h/mL and an AUC(0-t) ([4]; cynomolgus monkey, in vivo, iv, 10 mg/kg, AUClast, macaque, 10 mg/kg IV infusion, Mean) of 50300 ng·h/mL. It also gave a clearance [4, 7] of 6.32 mL/min/kg, a Cmax [4, 7] of 38200 ng/mL and a half-life ([4]; cynomolgus monkey, in vivo, iv, 10 mg/kg, 10 mg/kg IV infusion, Mean) of 4.6 h. The half-life ([4]; cynomolgus monkey, in vivo, iv, 10 mg/kg, 10 mg/kg IV infusion, individual monkey) was 4.3 h, the Vd [4, 7] was 1.26 L/kg and the “T 1/2” value ([4]; macaque, 3 mg/kg IV infusion, individual monkey, 3 mg/kg) was 6.3 h and 5 h. The “T 1/2” value ([4]; macaque, 10 mg/kg IV infusion, individual monkey, 10 mg/kg) was 4.9 h and 4.6 h.

— patent US20200071361A1, “ENGINEERED ANTIMICROBIAL AMPHIPHILIC PEPTIDES AND METHODS OF USE” (priority 2017, published 2020)
